In the case of `CCOC(=O)c1cn(Cc2cccnc2)nc1OCc1ccc(OCc2nc(-c3ccco3)oc2C)c(OC)c1`, the melting point is reported as 131 to 132 °C.
Work on `CN1CCC[C@@H]1Cc1c(-c2ccccc2)[nH]c2ccccc12` yielded a melting point of 132 °C.
Work on `O=C(NCc1ccccn1)Nc1cc(N2CC(COc3ccccc3)CC2=O)ccn1` (centres undefined) yielded a melting point of 135 to 137 °C.
With `CC(C)=C1CCC2(C1)C(=O)C=C(OC(C)C)CC2C` (centres undefined) the melting point was 77 to 77.5 °C.
With `CCC(C)Oc1nc(N)nc2c1ncn2C1C=CC(CO)C1` (centres undefined) the melting point was 159 to 161 °C.
`C=Cc1ncn2c1[C@@H]1CCCN1C(=O)c1c(Cl)cccc1-2` showed a melting point of 213 to 215 °C.
`COc1cc(Nc2ncc3c(n2)C(C)(c2ccccc2)CCC3)ccc1-n1cnc(C)c1` (centres undefined) gave a melting point of 207 to 209 °C.
Molecule `CCc1c(-c2ccc(OCc3ccccc3)cc2)c2cc(C(=O)OC)c3cccc1n32` has a melting point of 129 to 131 °C.
`c1ccc2c(c1)[nH]c1c2ccc2cc[nH]c21` showed a melting point of 295 °C.
For `CCCCCS(=O)(=O)NC(=O)OCCCc1ccc(OCCOC)cc1Oc1ncc(C(F)(F)F)cc1Cl`, the melting point was 97.5 to 99 °C.
`O=C1NC(O)C2=C1c1ccc(Cl)cc1C(c1ccccc1Cl)=NC2` (centres undefined) gave a melting point of 221 to 222 °C.
In the case of `CCCCC(Cc1ccc(OCCN(CC)CC)cc1)(C(=O)NO)S(=O)(=O)c1ccc(OC)cc1` (centres undefined), the melting point is reported as 67 °C.
Molecule `C=C1SC(=O)N(c2ccc3cc(-c4ccc(OC)c(C(C)(C)C)c4)ccc3c2)C1=O` has a melting point of 274 to 276 °C.
With `CNC(=O)CC1CN=C(c2cc3cc(Oc4ccc(S(C)(=O)=O)nc4)cc(OC4CCOCC4)c3[nH]2)S1` (centres undefined) the melting point was 143 to 144 °C.
Work on `COc1ccc(-c2nc(Sc3ccc(Cl)cc3)cc(N3CCN(C)CC3)n2)cc1` yielded a melting point of 143 to 145 °C.
Molecule `Fc1ccc2c(CCCN3CCN(c4n[nH]c5ccccc45)CC3)noc2c1` has a melting point of 139 to 141 °C.
`O=C(CCCCCCCCCCS(=O)c1ccccc1[N+](=O)[O-])OCc1ccccc1` (centres undefined) gave a melting point of 37 to 38 °C.
Work on `CC(C)c1nc(C2CCCCC2)cc(-c2ccc(F)cc2)c1CO` yielded a melting point of 101 to 104 °C.
For `COc1ccc(CNc2nc(OCc3ccccn3)ncc2C(=O)OCc2ccccn2)cc1Cl`, the melting point was 115 to 120 °C.
`CC(=O)N(C)c1ccc(Cl)c(COc2cccn3c(Br)c(C)nc23)c1Cl` gave a melting point of 201 to 204 °C.
In the case of `O=C(NCC(F)(F)F)C1(CCCCSc2nccs2)c2ccccc2-c2ccccc21`, the melting point is reported as 143 to 144 °C.
`CC[C@H](COCCCc1ccccc1)n1cnc2c(N)nc3ccccc3c21` gave a melting point of 118 to 120 °C.
With `O=C(NCC1CC2CCC1C2)n1cc(F)c(=O)[nH]c1=O` (centres undefined) the melting point was 165 to 166 °C.
For `Cc1cc(I)ccc1-c1cccc(C(N)=O)c1`, the melting point was 138 to 141 °C.
With `Cc1nn2c(C=O)c(-c3ccccc3)nc2s1` the melting point was 152 to 153 °C.
Molecule `Clc1ccc(OCc2ccccc2)c(C=Cc2ccccn2)c1` has a melting point of 105 to 106 °C.
With `Cn1c(=O)c(Oc2ccccc2F)cc2cnc(S(C)(=O)=O)nc21` the melting point was 158 to 162 °C.
With `Cc1c(Oc2ccc(C(=O)NC(C)C)cc2)c2cc(F)ccc2n1CC(=O)O` the melting point was 218 to 219 °C.
Work on `COc1nc2ccc(Br)cc2cc1C#N` yielded a melting point of 169 to 172 °C.
`Cc1nc2c(N)nc3ccc(OCc4ccccc4)cc3c2n1CCCCNC(=O)Nc1ccccc1` showed a melting point of 202 to 204 °C.
For `NS(=O)(=O)Cc1csc(-c2ccc(Cl)c(Cl)c2)n1`, the melting point was 165 to 167 °C.
`CCONC(=O)c1cc(NCC2CCN(Cc3ccccc3)CC2)ccn1` showed a melting point of 125 to 130 °C.
In the case of `CCOC(=O)c1cn(C2CC2)c2c(F)c(C(C#N)C(=O)OCC)c(F)c(F)c2c1=O` (centres undefined), the melting point is reported as 98 to 100 °C.
Molecule `COC(=O)c1ccc(Cn2ccc(OCc3ccc(F)cc3F)c(Br)c2=O)cc1` has a melting point of 136 to 139 °C.
For `Cc1c(C)c2c(c(C)c1O)CCC(C)(C#Cc1cccs1)O2` (centres undefined), the melting point was 133 to 135 °C.
Work on `CCN(CC)C(=O)c1c(C(F)F)ccc(F)c1[Si](C)(C)C` yielded a melting point of 65 to 67 °C.
In the case of `CNC(=O)Oc1ccc(N=Cc2ccccc2O)c(C)c1`, the melting point is reported as 156 to 157 °C.
`O=C(O)CCCc1cc2nc(Cl)ccc2n1S(=O)(=O)c1cccc(Cl)c1Cl` gave a melting point of 173 to 174 °C.
`c1ccc(NC2=NC3CCCc4cccc(c43)N2)cc1` (centres undefined) gave a melting point of 233 to 235 °C.
`CC(=O)/C=C(\C)c1ccc(C2CCCC2)cc1` showed a melting point of 33 to 33.5 °C.
`CCCCCCCCCCCCc1ccc2c(c1)C(=O)c1ccccc1C2=O` showed a melting point of 99 to 105 °C.
In the case of `CC(=O)NNc1ccc(N(Cc2ccccc2)C(=S)Nc2ccccc2)cc1`, the melting point is reported as 114 to 117 °C.
With `c1ccc(Sc2cc(Sc3ccccc3)c3ccc4c(Sc5ccccc5)cc(Sc5ccccc5)c5ccc2c3c54)cc1` the melting point was 230 °C.
`Cc1c(CCC(=O)O)n(Cc2ccc(-n3ccnc3)cc2)c2ccc(F)cc12` gave a melting point of 222 °C.
With `COC(=O)C(CC(C)C)NC(=O)c1cc([N+](=O)[O-])cc([N+](=O)[O-])c1` (centres undefined) the melting point was 143 to 145 °C.
`CC(CCC(=O)NC(C)(C)CO)C1CCC2C3C(=O)CC4CC(O)CCC4(C)C3CC(O)C12C` (centres undefined) showed a melting point of 229 to 231 °C.
In the case of `CNC(=O)Oc1ccc(NC=O)c2c1CCCC2`, the melting point is reported as 165 to 166 °C.
With `Nc1nc2ccccc2c2c1ncn2CCCCNC(=O)c1cccc(C(=O)c2ccccc2)c1` the melting point was 103 to 105 °C.
Work on `CCc1noc(-c2cc3c(cn2)[nH]c2ccc(S(=O)(=O)N(C)C)cc23)n1` yielded a melting point of 266 to 268 °C.
With `O=C1CCC(c2ccc3c(c2)NC(=O)CS3)=NN1` the melting point was 299 to 302 °C.
Molecule `CCOC(=O)C1=C(Cl)C(OCC)=NS1(=O)=O` has a melting point of 134 to 136 °C.
Work on `O=C1c2ccccc2C(=O)N1C1CCN(Cc2ccccc2)CC1` yielded a melting point of 154 to 157 °C.
Molecule `CN(Cc1cccc2c1C(=O)N(C1CCC(=O)NC1=O)C2=O)C(=O)Nc1ccccc1` (centres undefined) has a melting point of 226 to 228 °C.
`O=C(CC1=C(n2nc(-c3c(-c4ccccc4)nn4ccccc34)ccc2=O)CCCC1)N1CCSCC1` gave a melting point of 180 to 182 °C.
Work on `O=[N+]([O-])c1ccc2nc(CCCCCCCCc3nc4ccc([N+](=O)[O-])cc4[nH]3)[nH]c2c1` yielded a melting point of 135 to 137 °C.
`CN(C(=O)c1nnc2ccccc2c1O)c1ccccn1` showed a melting point of 237 to 239 °C.
`N#Cc1ccc(N(Cc2ccc(OS(N)(=O)=O)c(Br)c2)n2cnnc2)cc1-c1cc2ccccc2o1` gave a melting point of 199 to 200 °C.
With `CCN1C[C@@H](C(=O)OC(C)(C)C)N(C(=O)OCc2ccccc2)C1=O` the melting point was 97 °C.
`c1ccc(-c2ccc(CCCN3CCN(c4ccccc4)CC3)o2)cc1` showed a melting point of 95 °C.
In the case of `O=C(O)c1ccc(COCc2csc3nc(C(=O)NCc4ccc(Cl)c(Cl)c4)[nH]c(=O)c23)cc1`, the melting point is reported as 252 to 253 °C.
Molecule `N#Cc1cc2c(c(C(=O)O)c1)NCCC2` has a melting point of 238 °C.
Work on `O=C(CCc1cc(Br)c(OC(=O)c2c3ccccc3nc3ccccc23)c(Br)c1)ON1C(=O)CCC1=O` yielded a melting point of 175 to 176 °C.
Work on `OCc1cc2cc(OCc3ccccc3)c(F)cc2nc1I` yielded a melting point of 188 °C.
With `CCCCOc1ccc(CC(=O)N[C@@H](C(=O)O)[C@@H](C)O)cc1` the melting point was 90 to 94 °C.
Work on `CCCNC(=S)N1CCc2[nH]cnc2C1` yielded a melting point of 151 °C.
With `Oc1nc(Cl)c(Cl)cc1Cl` the melting point was 168 to 170 °C.
In the case of `CC(=O)N(C)N(C)c1ccnc2c(NC(=O)c3c(Cl)cccc3Cl)cccc12`, the melting point is reported as 243 to 244 °C.
For `O=C(CC(c1ccccc1)c1ccccc1)NCO`, the melting point was 149 to 151 °C.
Molecule `C=CCSC1(C(F)(F)F)CN(CC)C(=O)Nc2ccc(Cl)cc21` (centres undefined) has a melting point of 138 to 142 °C.
`Cc1cc(C2=NN(c3nccs3)[C@H](C)Cc3cc4c(cc32)OCO4)cc(C)c1[N+](=O)[O-]` gave a melting point of 167 °C.
`CCOC(=O)c1[nH]c2ccc(Cl)cc2c1-c1ccccc1` showed a melting point of 171 to 172 °C.
`O=S(=O)(CC=C(c1ccccc1)c1ccccc1)c1ccccc1` showed a melting point of 106 °C.
For `C=CCOc1ccccc1OCC(O)CNCCOc1ccc(O)c(C(N)=O)c1` (centres undefined), the melting point was 147 to 148 °C.
In the case of `Nc1csc2ccc([N+](=O)[O-])cc12`, the melting point is reported as 155 to 158 °C.
With `N#Cc1ccccc1Oc1cc(-n2cccc2)ccc1O` the melting point was 120 to 122 °C.
In the case of `Clc1cc2c(nn1)-c1ccccc1OC2`, the melting point is reported as 208 °C.
For `COC(=O)C(c1ccccc1)C1CCN(c2ccc(NC(=O)c3ccccc3-c3ccc(C(F)(F)F)cc3)cc2)CC1` (centres undefined), the melting point was 151 °C.
For `N#Cc1c(-c2ccccc2)c(-c2ccccc2)n[nH]c1=O`, the melting point was 280 to 281 °C.
`COc1nc(OC)nc(C2CC2)n1` showed a melting point of 68 to 70 °C.
In the case of `Cc1nnc2n1-c1ccc(Cl)cc1C(N1CCOCC1)=NC2`, the melting point is reported as 243 to 253 °C.
Work on `CCOC(=O)N1CCC(=C2c3ccc(Cl)cc3CCc3c(On4nnc5ccccc54)ccnc32)CC1` yielded a melting point of 182 to 184 °C.
For `CCCCCCc1cccc(-c2cn(C)cc(-c3ccccc3)c2=O)c1`, the melting point was 93 to 95 °C.
For `O=c1n(-c2ccccc2)nc2n1-c1ccccc1Oc1ccccc1-2`, the melting point was 176 to 177 °C.
With `CC(=O)N1CCc2ccc(C(=O)CCCCl)cc2CC1` the melting point was 103 to 106 °C.
With `COC(=O)CCn1c(=O)n(CCN2CCN(c3cccc(Cl)c3)CC2)c(=O)c2cscc21` the melting point was 150 °C.
With `Nc1ccccc1Sc1ccc2c(c1)OCC(=O)N2` the melting point was 70 to 71 °C.
With `CN(C)c1ccc(C=CC(=O)c2ccc3c(c2)CCC3)cc1` the melting point was 106 to 108 °C.
`COc1ccc(C(=Cc2ccncc2)c2ccncc2)cc1OC1CCCC1` gave a melting point of 136 to 138 °C.
For `CC(=O)Nc1ccc(S(=O)(=O)Nc2nnc(C)s2)cc1`, the melting point was 239 to 240 °C.
`C[C@@H](CO)Oc1cc(Oc2ccc(C(=O)N3CCC3)cc2F)cc(C(=O)Nc2ccn(C)n2)c1` gave a melting point of 142 °C.
`CCn1c(=O)oc2ccc(Cl)cc21` gave a melting point of 75 to 78 °C.
`COC(=O)C(=Cc1c[nH]c2cc(Cl)ccc12)[N+](=O)[O-]` gave a melting point of 159 to 160 °C.
Work on `Oc1c(-c2ccccc2)sc2c(C(O)c3ccccc3)nccc12` (centres undefined) yielded a melting point of 214 to 215 °C.
In the case of `CCCCn1c(=O)n(OCc2ccccc2)c(=O)c2cc(F)c(Cl)nc21`, the melting point is reported as 147 to 148 °C.
`O=C1NCCCN1c1ccccc1` showed a melting point of 210 to 211 °C.
With `NS(=O)(=O)c1ccc(-c2cccc(-c3nc(-c4ccc(Cl)cc4Cl)cc(C(F)(F)F)n3)c2)s1` the melting point was 238 °C.
With `COC(=O)c1c(S(N)(=O)=O)c(C)nn1-c1ccccn1` the melting point was 170 to 172 °C.
For `COc1ccc(-c2[nH]c3ccccc3c(=O)c2Cc2ccncc2)cc1`, the melting point was 246 to 248 °C.
With `COc1cc(CCc2ccc(Nc3ccccc3C(=O)O)cc2)cc(OC)c1OC` the melting point was 146 to 147 °C.
